Tests used:
DspE [1] = biological target: T1, DspE (Erwinia amylovora, UniProt O54581); assay: two-electrode voltage clamp, Xenopus oocytes; format: cell-based
T1 construct: full-length untagged ORF in pGH19, cRNA-injected Xenopus laevis oocytes; printed UniProt entry is strain Ea321, strain of the oocyte ORF not restated

AvrE [2] = biological target: T2, AvrE (Pseudomonas syringae group genomosp. 3, UniProt Q887C9); assay: fluorescent dye uptake, Xenopus oocytes; format: cell-based; settings: permeation through channel; ND96 bath saline with fluorescein, 20 h
T2 construct: full-length untagged ORF in pGH19, cRNA-injected Xenopus laevis oocytes
T2 sequence (Q887C9 whole entry): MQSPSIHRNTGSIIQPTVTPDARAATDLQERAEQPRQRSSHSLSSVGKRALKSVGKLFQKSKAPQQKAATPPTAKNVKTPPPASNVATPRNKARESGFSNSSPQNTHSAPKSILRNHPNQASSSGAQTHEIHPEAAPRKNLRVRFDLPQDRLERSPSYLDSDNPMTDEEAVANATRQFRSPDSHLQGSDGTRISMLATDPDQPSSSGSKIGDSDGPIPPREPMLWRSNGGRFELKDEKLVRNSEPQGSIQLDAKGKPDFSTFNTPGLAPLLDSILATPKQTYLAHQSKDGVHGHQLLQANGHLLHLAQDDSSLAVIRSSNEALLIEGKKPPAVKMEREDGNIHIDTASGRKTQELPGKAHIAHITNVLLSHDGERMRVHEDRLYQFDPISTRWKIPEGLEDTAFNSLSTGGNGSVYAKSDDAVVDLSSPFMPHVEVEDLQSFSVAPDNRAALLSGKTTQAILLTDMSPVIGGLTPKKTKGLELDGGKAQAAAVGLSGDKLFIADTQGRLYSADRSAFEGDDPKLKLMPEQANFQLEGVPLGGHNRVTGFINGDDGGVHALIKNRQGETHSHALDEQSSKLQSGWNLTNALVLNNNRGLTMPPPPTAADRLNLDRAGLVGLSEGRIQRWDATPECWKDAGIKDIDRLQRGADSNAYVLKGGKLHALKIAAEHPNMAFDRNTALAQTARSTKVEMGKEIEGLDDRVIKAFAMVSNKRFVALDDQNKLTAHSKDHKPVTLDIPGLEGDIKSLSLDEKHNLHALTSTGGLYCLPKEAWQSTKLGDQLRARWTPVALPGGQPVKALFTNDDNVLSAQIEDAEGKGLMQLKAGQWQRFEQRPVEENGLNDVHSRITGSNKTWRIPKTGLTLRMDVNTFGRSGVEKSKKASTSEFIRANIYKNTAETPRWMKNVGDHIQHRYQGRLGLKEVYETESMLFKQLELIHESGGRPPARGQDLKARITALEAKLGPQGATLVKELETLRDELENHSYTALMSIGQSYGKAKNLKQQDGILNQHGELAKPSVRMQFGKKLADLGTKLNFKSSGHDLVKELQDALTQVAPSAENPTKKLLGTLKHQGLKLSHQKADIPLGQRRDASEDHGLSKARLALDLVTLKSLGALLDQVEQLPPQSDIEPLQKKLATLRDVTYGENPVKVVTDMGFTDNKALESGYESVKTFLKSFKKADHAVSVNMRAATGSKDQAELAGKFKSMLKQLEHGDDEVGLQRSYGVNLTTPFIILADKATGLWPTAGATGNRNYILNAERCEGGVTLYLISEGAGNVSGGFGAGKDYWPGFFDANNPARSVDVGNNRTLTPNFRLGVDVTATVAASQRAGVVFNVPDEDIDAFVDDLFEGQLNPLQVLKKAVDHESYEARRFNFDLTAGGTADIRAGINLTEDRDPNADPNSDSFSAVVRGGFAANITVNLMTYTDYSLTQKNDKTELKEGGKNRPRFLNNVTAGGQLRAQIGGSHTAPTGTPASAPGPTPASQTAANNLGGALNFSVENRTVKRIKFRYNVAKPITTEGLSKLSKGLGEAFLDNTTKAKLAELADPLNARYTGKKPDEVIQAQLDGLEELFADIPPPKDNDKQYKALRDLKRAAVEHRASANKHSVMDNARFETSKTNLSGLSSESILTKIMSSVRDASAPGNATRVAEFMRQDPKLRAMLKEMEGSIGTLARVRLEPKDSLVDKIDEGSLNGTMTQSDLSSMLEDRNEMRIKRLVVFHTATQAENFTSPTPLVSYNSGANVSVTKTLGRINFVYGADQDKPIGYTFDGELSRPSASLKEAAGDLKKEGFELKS

DspE [3] = biological target: T1, DspE; assay: fluorescent dye uptake, Xenopus oocytes; format: cell-based; settings: permeation through channel; ND96 bath saline with fluorescein, 20 h
DspE (MBP-DspE) = biological target: T3, DspE (MBP-DspE) (Erwinia amylovora, UniProt O54581); assay: liposome carboxyfluorescein release inhibition; format: biochemical; settings: 20 mM HEPES, 300 mM NaCl, pH 8.0; 0.05-0.15 μM DspE; soybean lipid liposomes; channel blocker
T3 construct: full-length, N-terminal MBP-His8-PPX-FLAG tag kept; E. coli BL21(DE3); reconstituted in soybean liposomes; printed UniProt entry is strain Ea321, cloned gene from Ea273

AvrE [4] = biological target: T2, AvrE; assay: two-electrode voltage clamp, Xenopus oocytes; format: cell-based; settings: 50 mV test pulse; ND96 saline, pH 7.5; inhibitor in bath saline

T1 sequence (O54581 whole entry): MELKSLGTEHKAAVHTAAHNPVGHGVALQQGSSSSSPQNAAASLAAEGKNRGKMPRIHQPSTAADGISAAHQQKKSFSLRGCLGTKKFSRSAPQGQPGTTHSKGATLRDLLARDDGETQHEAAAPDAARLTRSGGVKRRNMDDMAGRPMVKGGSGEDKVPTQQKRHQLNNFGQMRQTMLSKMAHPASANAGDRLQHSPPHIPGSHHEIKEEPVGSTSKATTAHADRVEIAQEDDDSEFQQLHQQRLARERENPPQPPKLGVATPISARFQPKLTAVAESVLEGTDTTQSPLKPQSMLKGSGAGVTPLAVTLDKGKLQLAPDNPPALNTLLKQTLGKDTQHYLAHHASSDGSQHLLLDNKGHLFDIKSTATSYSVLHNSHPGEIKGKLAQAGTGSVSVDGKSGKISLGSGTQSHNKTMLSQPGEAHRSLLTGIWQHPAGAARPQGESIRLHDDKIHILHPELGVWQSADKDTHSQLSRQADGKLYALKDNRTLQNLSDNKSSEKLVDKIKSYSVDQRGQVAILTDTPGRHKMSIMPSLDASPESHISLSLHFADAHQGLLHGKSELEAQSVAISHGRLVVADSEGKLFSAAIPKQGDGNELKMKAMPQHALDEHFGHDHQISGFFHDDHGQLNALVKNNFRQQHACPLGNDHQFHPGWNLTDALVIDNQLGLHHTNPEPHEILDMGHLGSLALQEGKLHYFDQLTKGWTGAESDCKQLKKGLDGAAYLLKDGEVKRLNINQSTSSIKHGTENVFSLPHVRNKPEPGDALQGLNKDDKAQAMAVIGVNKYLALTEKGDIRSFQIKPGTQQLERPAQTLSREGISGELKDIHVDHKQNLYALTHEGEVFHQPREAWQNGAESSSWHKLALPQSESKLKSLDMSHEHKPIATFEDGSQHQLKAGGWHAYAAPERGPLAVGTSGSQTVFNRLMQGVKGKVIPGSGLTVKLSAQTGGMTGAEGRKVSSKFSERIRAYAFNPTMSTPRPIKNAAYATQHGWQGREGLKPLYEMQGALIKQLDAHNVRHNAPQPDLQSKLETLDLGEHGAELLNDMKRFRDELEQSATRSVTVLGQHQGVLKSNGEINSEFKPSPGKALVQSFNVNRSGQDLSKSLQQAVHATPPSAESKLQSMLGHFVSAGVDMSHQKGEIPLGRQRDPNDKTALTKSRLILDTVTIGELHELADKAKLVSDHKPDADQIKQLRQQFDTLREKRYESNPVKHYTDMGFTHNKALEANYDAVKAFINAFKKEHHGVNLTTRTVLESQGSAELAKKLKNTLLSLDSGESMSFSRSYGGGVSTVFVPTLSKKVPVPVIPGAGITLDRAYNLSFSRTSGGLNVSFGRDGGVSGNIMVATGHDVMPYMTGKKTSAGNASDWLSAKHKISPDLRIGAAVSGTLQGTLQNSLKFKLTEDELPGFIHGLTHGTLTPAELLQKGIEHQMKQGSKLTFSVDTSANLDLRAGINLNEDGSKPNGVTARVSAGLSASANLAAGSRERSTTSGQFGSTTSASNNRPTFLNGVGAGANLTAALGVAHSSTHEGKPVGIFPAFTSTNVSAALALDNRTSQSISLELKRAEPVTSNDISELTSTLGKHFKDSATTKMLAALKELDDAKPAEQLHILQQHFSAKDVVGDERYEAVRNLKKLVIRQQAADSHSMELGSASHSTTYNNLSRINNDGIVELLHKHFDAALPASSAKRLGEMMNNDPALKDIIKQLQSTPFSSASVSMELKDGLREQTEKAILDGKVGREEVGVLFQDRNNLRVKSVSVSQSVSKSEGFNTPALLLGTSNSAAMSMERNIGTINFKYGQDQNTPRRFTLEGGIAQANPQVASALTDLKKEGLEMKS

Molecule: NCCNC(=O)CCN(CCC(=O)NCCN)CCN(CCC(=O)NCCN)CCC(=O)NCCN [G0, PAMAM G0]
- inhibition at 10000 µM (DspE [1]; read-out: % inhibition at 10 mM): 68%

Molecule: O=C1OC2(c3ccc(O)cc3Oc3cc(O)ccc32)c2ccccc21 [fluorescein]
- fluorescent dye uptake, Xenopus oocytes (AvrE [2]): fluorescein entered oocytes expressing DspE or AvrE, whereas eGFP could not
- fluorescent dye uptake, Xenopus oocytes (DspE [3]): fluorescein entered oocytes expressing DspE or AvrE, whereas eGFP could not

Molecule: PAMAM G1
- IC50 (DspE (MBP-DspE)): 31 µM
- % inhibition at 10 mM (DspE [1]; 50 mV test pulse, ND96 saline, pH 7.5, inhibitor in bath saline): 71%
- % inhibition at 10 mM (AvrE [4]): 93%

Reference: article doi:10.1101/2023.07.29.547699, “Bacterial pathogens deliver water/solute-permeable channels as a virulence strategy” (bioRxiv, 2023)
